# Target: T1, mPPARαLBD/Gal4DBD (Mus musculus, UniProt P23204)
# T1 construct: expressed in transfected cells; host or cells: COS-7 (monkey kidney fibroblasts)
# T1 sequence (P23204 239-466 limits assumed): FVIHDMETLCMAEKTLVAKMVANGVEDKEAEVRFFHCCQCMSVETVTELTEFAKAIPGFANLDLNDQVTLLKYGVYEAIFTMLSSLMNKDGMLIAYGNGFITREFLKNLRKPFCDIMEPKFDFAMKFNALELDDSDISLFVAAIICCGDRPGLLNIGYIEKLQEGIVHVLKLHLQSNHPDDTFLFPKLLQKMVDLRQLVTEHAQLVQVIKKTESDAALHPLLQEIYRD
# Assay: Transactivation assay mediated by mPPARαLBD/Gal4DBD in COS-7 cells (CAT reporter)
# Format: cell-based
# From the text: In this model a transactivation assay is used in which the expression vector mPPARαLBD/Gal4 DBD allows the synthesis by the transfected cell of a chimeric protein, in which the ligand binding domain (LBD) of PPARα is fused with the DNA binding domain (DBD) of the transcription factor GAL4 of yeast [Luckow B. et al., Nucleic Acids Res. 15, 5490 (1987)]. Simultaneously, a plasmid (pG5CAT) is transfected which contains 5 copies of the high-affinity binding site for GAL4 (also called UAS, upstream activating sequence), upstream of the viral promoter E1b fused with the CAT reporter gene [Moya-Camarena S. Y. et al., J. Lipid Res. 40 (8), 1426-33 (1999)]. This model eliminates interference by possible endogenous receptors.
# This is due to the fact that the activation of E1b and the production of CAT will occur exclusively thanks to the interaction of GAL4 DBD with its own response element (UAS). Since the transcription factor GAL4 is not expressed in […] cells, transactivation of the reporter gene can take place only when, as a result of the interaction of a ligand with the LBD of PPARα, the chimeric protein PPARα/GAL4 recognises the UAS sequence on the plasmid pG5CAT. Together with the expression vector and the reporter vector the cells were also transfected with the plasmid pCH110 which provides the internal control for the efficiency of transfection and the normalisation of the results.
# A monkey kidney fibroblast cell line (COS-7) was used [Elbrecht A. et al., J. Biol. Chem. 274 (12), 7913-22 (1999)]. The cells were co-transfected with the reporter vector, the expression plasmid coding for the fusion protein Gal4 DBD/PPARαLBD and the control vector pCH110. The cells were exposed to increasing concentrations of the study compounds and CAT activity was evaluated. Untreated cells were used as controls.
# Monkey kidney fibroblasts (COS-7) were cultured according to the usual cell culture techniques, at 37° C. in a 5% v/v carbon dioxide atmosphere using as the growth medium DMEM (Dulbecco's modified Eagle's medium) modified with 3.7 g/l of sodium bicarbonate, 4 mM L-glutamine, 4.5 g/l of glucose, 1 mM sodium pyruvate and 10% v/v of foetal bovine serum, in the presence of streptomycin 100 μg/ml and penicillin 100 U/ml final.
# The cells were co-transfected using the transfection reagent FuGENE6 (Roche), consisting of a defined mixture of lipids capable of complexing the DNA and of transporting it into the cells. Twenty-four hours prior to transfection the cells were plated at a density of 1.2×10^5 cells/well in 12-well plates and maintained at 37° C. in a 5% v/v CO2 atmosphere. […] Briefly, the transfection mixture containing 0.8 μg of the expression vector, 1.6 μg of the reporter vector, 0.8 μg of the control vector and 9 μl of the FuGENE6 reagent per well was added directly to the cells in the presence of culture medium devoid of serum. After 5 hours, the transfection medium was replaced by 1 ml of culture medium complete with serum and antibiotics in the presence or absence of the molecules to be tested at 3 different concentrations (2, 20 and 100 μM). Wy-14,643 (2 μM), a known ligand of PPARα, was used as the positive reference compound.
# After 48 hours' incubation at 37° C. in a 5% v/v CO2 atmosphere, the cells were washed twice with 1 ml of phosphate buffer (PBS) and removed mechanically from the wells in TEN buffer (Tris[hydroxymethyl]aminomethane 10 mM pH 8, ethylenediamine-tetraacetic acid 1 mM pH 8, sodium chloride 0.1 M). After centrifuging for 3 minutes at 1000 rpm, the cells were resuspended in 65 μl of lysis buffer (Tris-HCl 0.25 M, pH 8) and then lysed thanks to three rapid freeze-thaw cycles. The insoluble cellular materials (debris) were removed by centrifuging at 15,000 rpm for 15 minutes at 4° C., and the supernatant was recovered and used for the CAT and β-galactosidase activity assays. […]
compound,measurement,setting,value
"CC(C)(Sc1cccc(OCCc2ccc(Cl)cc2)c1)C(=O)O [Example 2, 2-[3-[2-(4-chlorophenyl)ethoxy]phenylthio]-2-methylpropanoic acid]","Activation of reporter gene CAT as a percentage of the reference compound (WY-14,643 2 μM = 100%)",2 μM,69.7%
same,"Activation of reporter gene CAT as a percentage of the reference compound (WY-14,643 2 μM = 100%)",20 μM,103.6%
same,"Activation of reporter gene CAT as a percentage of the reference compound (WY-14,643 2 μM = 100%)",100 μM,280.9%

# From patent publication US7375124B2, “Use of α-phenylthiocarboxylic and α-phenyloxycarboxylic acids with serum-glucose-lowering and serum-lipid-lowering activity” (Sigma-Tau Industrie Farmaceutiche Riunite S.p.A., priority 2002, dated 2008)
